Assay results reported in patent US7579515B2, “Increasing gamete production with a gene switch” (North Carolina State University, priority 2003, dated 2009).

System: transgenic mice carrying FSHβLCR/tet receptor plus tet operator/FSHβ gene
Assay: Ovulation (oocyte count) in FSHβ-switch transgenic female mice fed Dox
Assay type: in vivo
Excerpt: Female mice (7 weeks old) were fed rat chow±Dox (6 gm/kg) and were put with males 6 days after feeding began. Females were checked for copulation plugs am and pm and were euthanized the morning plugs were found; uteri and ovaries were excised from each mouse and oocytes were freed from the ampulla and separated from cumulus cells with hyaluronidase (FIG. 3B). Oocytes were counted (see FIG. 3A). All Dox-fed mice ovulated within 5 days of male exposure except one (19 days) and it produced 90 oocytes. The sheep FSHβLCR was isolated along with its promoter in accordance with standard techniques and operatively associated with a new structural gene, the tet receptor, so that mice carrying this transgene expressed the tet receptor exclusively and strongly in pituitary gonadotropes. Linked to the […] was a second gene unit: the tet operator operatively associated with the structural gene for sheep FSHβ. […] The increase in FSHβ production created more FSH which increased ovulation by 2.4-fold (from an average of 12±0.5 to 29±4). Ovulation of this magnitude is matched only by time-consuming treatments with costly fertility hormones.

C[C@H]1c2cccc(O)c2C(=O)C2=C(O)[C@]3(O)C(=O)C(C(N)=O)=C(O)[C@@H](N(C)C)[C@@H]3[C@@H](O)[C@@H]21 [doxycycline]
time to ovulation after male exposure (all Dox-fed mice except one (19 days)): ≤ 5 days | oocytes produced by a single mouse (the one Dox-fed mouse that ovulated at 19 days of male exposure, oocytes appeared normal): 90 | oocytes ovulated, average (transgenic female mice, 7 weeks old, rat chow with Dox 6 gm/kg, put with males 6 days after feeding began, without Dox average 12±0.5): 29±4 | increase in ovulation (transgenic mice, ligand administered vs not administered): 2.4 fold
